# Patent publication US10227312B2, “Glucosylceramide synthase inhibitors for the treatment of diseases” (BIOMARIN PHARMACEUTICAL INC., priority 2015, dated 2019)
# Target: glucosylceramide synthase (GCS) (Canis lupus familiaris, UniProt A0A8I3MXG6)
# Test: GCS Enzymatic Assay (MDCK lysates)
# Assay type: biochemical, canine
# Conditions: MDCK cell lysate, C6-NBD-Ceramide, 37° C. for 1 hour, LC/MS; read-out: Assay 1 (Enzyme Assay; MDCK lysates) IC50
# Procedure: Madin-Darby canine kidney (MDCK) cell lysate was prepared using M-PER Mammalian Protein Extraction Reagent (Thermal Scientific) in the presence of a protease inhibitor cocktail (Roche). Protein concentration was determined using BCA assay kit (Pierce). […] 0.1% DMSO was used as mock treatment or control. The reaction was terminated by adding 100 μL acetonitrile solution and subjected to LC/MS analysis.
# The quantitative analysis of NBD-Ceramide and glucosylceramide was performed on a Shimadzu ultra-fast liquid chromatography (Shimadzu, Japan) coupled with API 4000 triple quadrupole mass spectrometer (Applied Biosystems, Concord, Ontario, Canada). Sample separation was conducted on a Waters Xbridge™ BEH130 C18, 100 mm×4.6 mm i.d, 3.5 μm (Milford, Mass., USA). The mobile phase consisted of water and acetonitrile supplemented with 0.1% formic acid (v/v). The flow rate was 1.0 mL/min. The initial mobile phase was 20% acetonitrile and was ramped in a linear fashion to 50% acetonitrile in 0.4 min. From 0.4 to 1.5 min, the gradient was ramped to 98% acetonitrile, and then was held at […] until 8.0 min. Acetonitrile was reset to 20% in 1.5 min, and maintained until 10.0 min. The total run time was 10.0 min. The MS/MS detection was performed in ESI positive mode. […] The cell lysate was diluted with equal volume of acetonitrile. Aliquots of 50 μL diluted samples were added to 1.5 mL tubes, and 100 μL of acetonitrile containing internal standard (100 ng/mL tolbutamide) were added for protein precipitation. The mixture were vortexed and then centrifuged at 13000 rpm for 10 min. 70 μL of supernatant were mixed with 140 μL of H2O and the final solution were injected for LC/MS/MS analysis and IC50's and/or percent inhibitions calculated.
# Sequence of glucosylceramide synthase (GCS) (A0A8I3MXG6 1-394): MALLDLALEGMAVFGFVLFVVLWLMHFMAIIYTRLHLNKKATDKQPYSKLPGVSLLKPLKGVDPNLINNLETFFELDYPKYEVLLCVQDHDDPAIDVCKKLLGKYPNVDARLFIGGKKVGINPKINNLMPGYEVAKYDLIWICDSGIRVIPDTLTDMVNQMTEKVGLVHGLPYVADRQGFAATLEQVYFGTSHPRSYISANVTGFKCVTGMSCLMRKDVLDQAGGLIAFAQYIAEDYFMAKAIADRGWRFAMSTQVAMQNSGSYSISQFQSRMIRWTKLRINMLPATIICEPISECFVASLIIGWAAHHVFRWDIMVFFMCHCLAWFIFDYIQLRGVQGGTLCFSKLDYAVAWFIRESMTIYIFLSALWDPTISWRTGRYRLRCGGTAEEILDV
row,SMILES,IC50 [nM]
1,"O=C(N[C@H](CN1CCCC1)[C@H](O)c1ccc(OC2CC2)c(Cl)c1)C1=NOCc2c1sc1cc(Cl)ccc21 [Example 13, 7-chloro-N-((1R,2R)-1-(3-chloro-4-cyclopropoxyphenyl)-1-hydroxy-3-(pyrrolidin-1-yl)propan-2-yl)-1H-benzo[4,5]thieno[2,3-d][1,2]oxazine-4-carboxamide]",10 to 100
2,"O=C(N[C@H](CN1CCC1)[C@H](O)c1ccc(OC2CC2)c(F)c1)C1=NOCc2c1sc1cc(Cl)ccc21 [Example 15, N-((1R,2R)-3-(azetidin-1-yl)-1-(4-cyclopropoxy-3-fluorophenyl)-1-hydroxypropan-2-yl)-7-chloro-1H-benzo[4,5]thieno[2,3-d][1,2]oxazine-4-carboxamide]",100 to 1000
3,"O=C(N[C@H](CN1CCC1)[C@H](O)c1ccc(OC2CC2)c(Cl)c1)C1=NOCc2c1sc1cc(Cl)ccc21 [Example 16, N-((1R,2R)-3-(azetidin-1-yl)-1-(3-chloro-4-cyclopropoxyphenyl)-1-hydroxypropan-2-yl)-7-chloro-1H-benzo[4,5]thieno[2,3-d][1,2]oxazine-4-carboxamide]",100 to 1000
4,"O=C(N[C@H](CN1CCC1)[C@H](O)c1ccc(OC2CC2)cc1)C1=NCCc2cc(-c3ccc(F)cc3)ccc21 [Example 40, N-((1R,2R)-3-(azetidin-1-yl)-1-(4-cyclopropoxyphenyl)-1-hydroxypropan-2-yl)-6-(4-fluorophenyl)-3,4-dihydroisoquinoline-1-carboxamide]",10 to 100
5,"O=C(N[C@H](CN1CCCC1)[C@H](O)c1ccc(OC2CC2)c(Cl)c1)C1OCCc2cc(-c3ccc(F)cc3)ccc21 (stereo partly drawn) [Example 42, N-((1R,2R)-1-(3-chloro-4-cyclopropoxyphenyl)-1-hydroxy-3-(pyrrolidin-1-yl)propan-2-yl)-6-(4-fluorophenyl)isochroman-1-carboxamide]",100 to 1000
6,"O=C(N[C@H](CN1CCCC1)[C@H](O)c1ccc(OC2CC2)c(Cl)c1)C1OCCc2c1sc1cc(Cl)ccc21 (stereo partly drawn) [Example 43, 7-chloro-N-((1R,2R)-1-(3-chloro-4-cyclopropoxyphenyl)-1-hydroxy-3-(pyrrolidin-1-yl)propan-2-yl)-3,4-dihydro-1H-benzo[4,5]thieno[2,3-c]pyran-1-carboxamide]",100 to 1000

# Now from value to compound:
row,IC50 [nM],SMILES
1,100 to 1000,"CC1(C)ON=C(C(=O)N[C@H](CN2CCCC2)[C@H](O)c2ccc(OC3CC3)c(Cl)c2)c2ccc(-c3ccc(F)cc3)cc21 [Example 23, N-((1R,2R)-1-(3-chloro-4-cyclopropoxyphenyl)-1-hydroxy-3-(pyrrolidin-1-yl)propan-2-yl)-7-(4-fluorophenyl)-1,1-dimethyl-1H-benzo[d][1,2]oxazine-4-carboxamide]"
2,100 to 1000,"CC1(C)Cc2cc(-c3ccc(F)cc3)ccc2C(C(=O)N[C@H](CN2CCCC2)[C@H](O)c2ccc(OC3CC3)c(Cl)c2)=N1 [Example 41, N-((1R,2R)-1-(3-chloro-4-cyclopropoxyphenyl)-1-hydroxy-3-(pyrrolidin-1-yl)propan-2-yl)-6-(4-fluorophenyl)-3,3-dimethyl-3,4-dihydroisoquinoline-1-carboxamide]"
